Reference: paper PMC12392461, “Beyond Estrogenicity: A Comparative Assessment of Bisphenol A and Its Alternatives in In Vitro Assays Questions Safety of Replacements” (Environmental Science & Technology, 2025)
Read-outs that look alike come from different tables or passages of the source.

Experiments:
[1] = system: Mitochondrial Membrane Potential; assay: cells
Source text: All bioassay media components and the ERα-UAS-bla GripTite and PPARγ-UAS-bla cells were obtained from Thermo Fisher Scientific (Waltham, MA, USA). AREc32 reporter gene cells based on MCF7 were provided by C. Roland Wolf (Cancer Research UK); AhR CALUX cells (H4L7.5c2 derived from H4IIe) were provided by Michael Denison (UC Davis, USA); and SH-SY5Y cells were purchased from Sigma-Aldrich.
(§1) Cell culture conditions and bioassay protocols including response detection are provided in Text S2.1–2.4 and Table S3. − Cell viability was determined from cell confluency using an IncuCyte S3 Live-Cell Analysis System (Sartorius AG, Essen, Germany) before and after exposure, except for SH-SY5Y cells (live–dead staining with Nuclear Green LcS1 and propidium iodide, Abcam, UK). For metabolic activation experiments, cell viability was assessed using the ToxBLAzer DualScreen Kit (Thermo Fisher Scientific) to capture the remaining toxicity in ERα-UAS-bla GripTite after treatment with the aCYP catalyst (details in Text S2.4).
For ARE, the concentration that triggered an induction ratio of 1.5 (ECIR1.5) was used as the benchmark value, as detailed in Text S2.5. IC10 values also served as a threshold for data analysis in all assays; only concentrations below IC10 were considered when deriving EC10 or ECIR1.5. […]
S2: Cell culture and bioassays
S2.1: Cell Culturing Conditions
All suppliers and sources are given in detail in SI-Excel S3. The bioassay media for the different assays were prepared as follows: Assay medium for ER alpha-UAS-bla GripTite (ERα) and […]
2% charcoal-stripped FBS, and 100 U/mL penicillin-streptomycin. MitoOxTox and AhR assay medium was comprised of 90% DMEM with GlutaMAX, supplemented with 10% FBS, and 100 U/mL penicillin-streptomycin. […]
(§2) S2.2: Cell Seeding and Incubation. For all bioassays, cell suspensions in the respective assay medium were dispensed into each well of 384-well plates using a MultiFlo Dispenser (Biotek, (now Agilent), Winooski, VT, U.S.). After seeding, the plates were incubated at 37° C and 5% CO₂ for […]. The final cell densities and plate types were as follows: Black poly-D-lysine […]
(§3) 6500 cells/well, ERα: 5000 cells/well. White 384-well plates with a clear bottom (Product No.
(§4) NYC, U.S.) for AhR: 3250 cells/well. Black Collagen I coated plates were used (Product No.
(§5) S2.3: Chemical Dosing and Assay Analysis Procedures. The dosing procedure and high-throughput assay workflow have been described in detail before. 9 The dosing concentrations […]
Stock solutions were then either

[2] = system: H4IIe (AhR CALUX); conditions: for Toxic ratio (TR) TRAhR: against baseline cytotoxicity; for IC10, H4IIe, AhR: H4IIe (AhR assay cells)
Experimental: as §1
(§6) For ARE, the concentration that triggered an induction ratio of 1.5 (ECIR1.5) was used as the benchmark value, as detailed in Text S2.5. IC10 values also served as a threshold for data analysis in all assays; only concentrations below IC10 were considered when deriving EC10 or ECIR1.5.
(§7) We measured the cytotoxicity of BPA and its alternatives in HEK293H (PPARγ), HEK293T (ERα), H4IIe (AhR CALUX), MCF7 (ARE/MMP), and differentiated SH-SY5Y cells (Table S6). […]
as §2, §3, §4, §5
(§8) Stock solutions were then either added directly to the respective cell culture medium or evaporated under nitrogen, followed by replenishment with fresh medium. The final solvent content in each well was kept below 1% for methanol, 0% for acetonitrile.
(§9) Dosing plates were prepared as 11 -step serial dilutions using a Hamilton Microlab Star robotic system (Hamilton, Bonaduz, Switzerland), and chemicals were dosed in duplicates by transferring 10 μL twice from the dosing plates to the cell plates . After quantifying cell confluency as described in S2. 4., the exposed cells were incubated at 37° C and 5% CO₂ for an additional 24 h. All chemicals were tested in all assays with at least three independent […]
(§10) S2.4: Cell Viability Measurement s and bioanalytical protocols . The confluency as a measure of cell viability was determined with an IncuCyte S3 Live -Cell Analysis System (Sartorius AG, Essen, Germany). With this method the confluency of cells in a microscopy image are normalized to control wells without cells and compared before and after 24 hours of exposure.
(§11) This method has been described previously 13. […]

[3] = system: HEK293H (PPARγ); conditions: for IC10, linear transformed / IC10, linear / logIC10: PPARγ bioassay cytotoxicity, dosing range all; for IC10, linear: linear model; for logIC10: log-logistic model; for IC10, HEK293, PPARγ: cytotoxicity, HEK293 (PPARγ assay cells)
Experimental: as §1, §6, §7, §2, §3, §4, §5, §8, §9, §10, §11

[4] = system: HEK293T (ERα); conditions: for IC10, HEK293, ERα: HEK293 (ERα assay cells)
Experimental: as §1, §6, §7, §2, §3, §4, §5, §8, §9, §10, §11

[5] = system: MCF7 (ARE/MMP); conditions: for IC10, linear / logIC10 / IC10, linear transformed: dosing range all; for IC10, MCF7, MMP: MCF7, MMP readout
Experimental: as §1, §6, §7, §2, §3, §4, §5, §8, §9, §10, §11

[6] = Arec32, read-out: EC10, linear transformed
[7] = Bioassay ARE, cytotoxicity, linear model fit
[8] = Bioassay ARE, cytotoxicity, log-logistic model fit
[9] = MMP bioassay cytotoxicity, linear model
[10] = MMP bioassay cytotoxicity, log-logistic model
[11] = Arec32, read-out: EC10, MMP (M)

| Structure (SMILES) | EC10 [1, 6] | Toxic ratio (TR) TRAhR [2] | IC10, H4IIe, AhR ([2]; cytotoxicity) | IC10, linear transformed [3] | IC10, linear [3] | logIC10 [3] | IC10, HEK293, PPARγ [3] | IC10, HEK293, ERα ([4]; cytotoxicity) | IC10, linear [5, 7] | logIC10 [5, 8] | IC10, linear transformed ([5]; MMP bioassay cytotoxicity) | IC10, linear [5, 9] | logIC10 [5, 10] | IC10, MCF7, MMP ([5]; cytotoxicity) | EC10 ([1]; Arec32, read-out: EC10, MMP) | EC10 [1, 11] | EC10 ([1]; Arec32, read-out: EC10, linear) | EC10 ([1]; Arec32, read-out: logEC10) | further results |
| --- | --- | --- | --- | --- | --- | --- | --- | --- | --- | --- | --- | --- | --- | --- | --- | --- | --- | --- | --- |
| Cc1cc(Cc2cc(C)c(O)c(C)c2)cc(C)c1O [TMBPF, Bis(3,5-dimethyl-4-hydroxyphenyl)methane] | 6.68e-05 M | 0.13 | 105 µM | 4.21E-07 | 3.65E-06 | -5.53 | 2.95 µM | 6.58 µM | no cytotoxicity | no cytotoxicity | 1.42E-05 | no cytotoxicity | -4.85 | 14.2 µM | – | – | – | – | EC10, linear ([1]; MMP bioassay, dosing range all, linear model): no effect; logEC10 ([1]; MMP bioassay, dosing range all, log-logistic model): no effect; IC10, linear transformed ([2]; Bioassay AhR, cytotoxicity, dosing range all): 1.05E-04; IC10, linear ([2]; Bioassay AhR, cytotoxicity, dosing range all, linear model fit): 1.11E-04; logIC10 ([2]; Bioassay AhR, cytotoxicity, dosing range all, log-logistic model fit): -3.98; Toxic ratio (TR) TRPPARγ ([3]; against baseline cytotoxicity): 1.52; IC10, linear transformed ([4]; Bioassay ERα, cytotoxicity, dosing range all): 5.55E-06; IC10, linear ([4]; Bioassay ERα, cytotoxicity, dosing range all, linear model fit): 6.58E-06; logIC10 ([4]; Bioassay ERα, cytotoxicity, dosing range all, log-logistic model fit): -5.17; Toxic ratio (TR) TRERα ([4]; against baseline cytotoxicity): 0.68; Toxic ratio (TR) TRMMP ([5]; against baseline cytotoxicity, MMP readout): 0.95 |
| CC1(C)[C@H](O)C(C)(C)[C@H]1O [t-TMCD, trans-2,2,4,4-Tetramethyl-1,3-cyclobutanediol] | – | 0.11 | 8940 µM | – | – | – | – | – | – | – | – | – | – | – | 0.0185 M | 0.0185 M | – | – | Specificity ratio (SRbaseline) SRMMP ([1]; against baseline cytotoxicity): 0.0554; Relative effect potency REPMMP ([1]; relative to BPA): 0.00152 |
| O=S(=O)(c1ccc(O)cc1)c1ccc(O)cc1 [BPS, 4,4'-Sulfonyldiphenol] | 0.000118 M | – | – | 3.12E-05 | 6.15E-04 | -3.22 | 603 µM | 520 µM | 1.31E-03 | -2.86 | 1.22E-03 | 1.44E-03 | -2.92 | 1220 µM | 0.000117 M | 0.000117 M | 7.55e-05 M | 0.000117 M | IC10, linear transformed ([4]; Bioassay ERα, cytotoxicity, dosing range high): 1.03E-04; IC10, linear ([4]; Bioassay ERα, cytotoxicity, dosing range high, linear model fit): 5.20E-04; logIC10 ([4]; Bioassay ERα, cytotoxicity, dosing range high, log-logistic model fit): -3.33; IC10, linear transformed ([4]; ERα bioassay cytotoxicity, dosing range low): 5.72E-05; IC10, linear ([4]; ERα bioassay cytotoxicity, dosing range low, linear model): no cytotoxicity; logIC10 ([4]; ERα bioassay cytotoxicity, dosing range low, log-logistic model): no cytotoxicity; IC10, linear transformed ([5]; Bioassay ARE, cytotoxicity): 1.39E-03; IC10, MCF7, ARE ([5]; cytotoxicity, MCF7, ARE readout): 1390 µM |
| CC(C)(c1cc(Br)c(O)c(Br)c1)c1cc(Br)c(O)c(Br)c1 [TBBPA, 3,3',5,5'-Tetrabromobisphenol A] | 2.89e-05 M | – | – | – | – | – | – | – | – | – | – | – | – | – | 2.83e-05 M | 2.83e-05 M | 1.94e-05 M | 2.82e-05 M | logIC10 ([2]; rat, 24 h): -3.80; IC10, linear [4]: no cytotoxicity; logIC10 ([4]; human, 24 h): -4.81 |
